For assay [1], the target named is T1, GST-tagged recombinant human TYRO3 kinase domain (Homo sapiens, UniProt Q06418).
T1 construct: GST-tagged recombinant human TYRO3 kinase domain; purchased Carna PR7480A
T1 sequence (Q06418 518-790 limits assumed): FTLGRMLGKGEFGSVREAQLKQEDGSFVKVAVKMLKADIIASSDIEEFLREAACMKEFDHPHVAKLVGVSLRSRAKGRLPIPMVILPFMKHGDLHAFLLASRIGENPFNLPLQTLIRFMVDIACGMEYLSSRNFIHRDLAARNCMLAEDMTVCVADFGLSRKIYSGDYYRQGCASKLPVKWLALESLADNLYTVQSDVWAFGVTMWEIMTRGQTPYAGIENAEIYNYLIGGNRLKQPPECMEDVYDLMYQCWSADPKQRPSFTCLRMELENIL
In words: TYRO3 Enzyme Assay (LanthaScreen Eu Kinase Binding). To be noted: averaged IC50; TYRO3 5 nM; 60-minute incubation at 22° C.; TR-FRET. As to the method: Compounds disclosed herein were screened for their ability to inhibit TYRO3 kinase using Invitrogen's LanthaScreenTM Eu Kinase Binding technology. GST-tagged recombinant human TYRO3 kinase domain from Carna (5 nM; Cat. No. P[…]) was incubated with 20 nM Alexa-Fluor® Tracer 236 (P[…]) and 2 nM Europium-anti-GST (Cat. No. A15116) along with test compound in a buffer consisting of 25 mM HEPES, pH 7.4, 10 mM MgCl2, 0.01% Triton X-100, and 2% DMSO. Compounds are typically prepared in a threefold serial dilution in DMSO and added to the assay to give the appropriate final concentration. After a 60-minute incubation at 22° C., the reaction was measured using a PerkinElmer EnVision multimode plate reader via TR-FRET dual wavelength detection, and the percent of control (POC) calculated using a ratiometric emission factor. […] The POC values were fit to a 4 parameter logistic curve and the IC50 value is point where the curve crosses 50 POC.
A general note: TR-FRET usually uses a lanthanide donor and a delayed reading to cut background.

The target in assay [2] is T2, human MET kinase del Ex14 (Homo sapiens, UniProt P08581, DEL963-1009).
T2 construct: GST-tagged recombinant human MET kinase domain; purchased Signal Chem
In words: c-Met Enzyme Assay, del Ex14 mutant. It is filed as binding. Conditions: averaged IC50; del Ex14 5 nM; 60-minute incubation at 22° C.; read-out: Del14 IC50. As to the method:
The affinity of compound binding to wild type and mutant human MET kinases was measured using Invitrogen's LanthaScreen™ Eu Kinase Binding technology. Briefly, GST-tagged recombinant human MET kinase domain from Signal Chem (see Table 8 below for concentration in assay) was incubated with 50 nM Alexa-Fluor® Tracer 236 (Invitrogen Cat No. PR9078A) and 2 nM Europium-anti-GST (Invitrogen Cat. No. A15116) along with test compound in a buffer consisting of 25 mM HEPES, pH 7.4, 10 mM MgCl2, 0.01% Triton X-100, 1mM DTT, and 2% DMSO. Compounds were typically prepared in a three-fold serial dilution in DMSO and added to the assay to give the appropriate final concentration. After a 60-minute incubation at 22° C., the reaction was measured using a PerkinElmer EnVision multimode plate reader via TR-FRET dual wavelength detection, and the percent of control (POC) calculated using a ratiometric emission factor. […] The POC values were fit to a 4 parameter logistic curve and the IC50 value is point where the curve crosses 50 POC.

T2 sequence (P08581 with tags, fused parts or gaps DEL963-1009 limits assumed): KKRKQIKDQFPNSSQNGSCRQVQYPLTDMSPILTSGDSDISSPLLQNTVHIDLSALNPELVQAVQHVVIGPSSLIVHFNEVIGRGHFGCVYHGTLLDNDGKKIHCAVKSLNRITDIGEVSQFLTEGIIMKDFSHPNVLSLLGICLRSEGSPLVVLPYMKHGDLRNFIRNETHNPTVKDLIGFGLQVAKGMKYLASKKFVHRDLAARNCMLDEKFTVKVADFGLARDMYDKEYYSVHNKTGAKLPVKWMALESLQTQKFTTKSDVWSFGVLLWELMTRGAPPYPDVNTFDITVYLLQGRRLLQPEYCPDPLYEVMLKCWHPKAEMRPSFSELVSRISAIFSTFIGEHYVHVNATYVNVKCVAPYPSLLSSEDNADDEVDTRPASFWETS

The term IC50 denotes the midpoint of a concentration-inhibition curve. Turning to `COc1ccc(-c2cn(C(C)C)cc(C(=O)Nc3ccc(Oc4ccnc5cc(OC)c(OC)cc45)cn3)c2=O)c(F)c1` [Example 31, N-(5-((6,7-dimethoxyquinolin-4yl)oxy)pyridin-2-yl)-5-(2-fluoro-4-methoxyphenyl)-1-isopropyl-4-oxo-1,4-dihydropyridine-3-carboxamide], the IC50 in assay [1] turned out to be 23 nM; in assay [2], 44.7 nM.
For the molecule `CCn1cc(C(=O)Nc2ccc(Oc3ccnc4ccc(OC)cc34)cn2)c(=O)c(-c2ccc(F)cc2)c1` [Example 39, 1-ethyl-5-(4-fluorophenyl)-N-(5-((6-methoxyquinolin-4-yl)oxy)pyridin-2-yl)-4-oxo-1,4-dihydropyridine-3-carboxamide], the IC50 turned out to be 83 nM in assay [1] and 25.6 nM in assay [2].
Taken in the same sequence, the figures for `COc1cc2nccc(Oc3ccc(NC(=O)c4cn(CC(C)C)cc(-c5ccc(F)cc5)c4=O)nc3)c2cc1OC` [Example 11, N-(5-((6,7-dimethoxyquinolin-4-yl)oxy)pyridin-2-yl)-5-(4-fluorophenyl)-1-isobutyl-4-oxo-1,4-dihydropyridine-3-carboxamide] were 33 nM and 7.7 nM.
With `CCC(CC)n1cc(C(=O)Nc2ccc(Oc3ccnc4cc(OC)c(OC)cc34)cn2)c(=O)c(-c2ccc(F)cc2F)c1` [Example 16, 5-(2,4-difluorophenyl)-N-(5-((6,7-dimethoxyquinolin-4yl)oxy)pyridin-2-yl)-4-oxo-1-(pentan-3-yl)-1,4-dihydropyridine-3-carboxamide], the results for the concentration for half-maximal inhibition (IC50) in assay [1] and in assay [2] were 11 nM and 4.6 nM, respectively.
Taken in the same sequence, the figures for `COc1cc2nccc(Oc3ccc(NC(=O)c4cn(C(C)C)cc(-c5ccc(F)cc5F)c4=O)nc3)c2cc1OC` [Example 4] were 5 nM and 1.7 nM.
`COc1cc2nccc(Oc3ccc(NC(=O)c4cn(CC(=O)N(C)C)cc(-c5ccc(Cl)cc5)c4=O)nc3)c2cc1OC` [Example 25]: the IC50 in assay [1] is 54 nM; in assay [2], 9.5 nM.
Taken in the same sequence, the figures for `COc1cc2nccc(Oc3ccc(NC(=O)c4cn(C(C)C)cc(-c5ccc(F)c(F)c5)c4=O)nc3)c2cc1OC` [Example 6] were 11 nM and 7.8 nM.
In the same order, the values of `COc1cc2nccc(Oc3ccc(NC(=O)c4cn(C(C)C)cc(-c5ccc(F)cc5)c4=O)cn3)c2cc1OC` [Example 58, N-(6-((6,7-dimethoxyquinolin-4-yl)oxy)pyridin-3-yl)-5-(4-fluorophenyl)-1-isopropyl-4-oxo-1,4-dihydropyridine-3-carboxamide] are 6 nM and 3.1 nM.
With `COCCn1cc(C(=O)Nc2ccc(Oc3ccnc4cc(OC)c(OC)cc34)cn2)c(=O)c(-c2ccc(F)cc2)c1` [Example 7, N-(5((6,7-dimethoxyquinolin-4-yl)oxy)pyridin-2-yl)-5-(4-fluorophenyl)-1-(2-methoxyethyl)-4-oxo-1,4-dihydropyridine-3-carboxamide], the IC50 in assay [1] stood at 7 nM; in assay [2], 2.6 nM.
In the case of `COc1cc2nccc(Oc3ccc(NC(=O)c4cn(C(C)C)cc(-c5ccc(F)cc5C)c4=O)nc3)c2cc1OC` [Example 19, N-(5-((6,7-dimethoxyquinolin-4yl)oxy)pyridin-2-yl)-5-(4-fluoro-2-methylphenyl)-1-isopropyl-4-oxo-1,4-dihydropyridine-3-carboxamide], the results for the IC50 in assay [1] and in assay [2] were 4 nM and 1.9 nM, respectively.
For the molecule `COc1cc2nc(C)cc(Oc3ccc(NC(=O)c4cn(C(C)C)cc(-c5ccc(F)cc5)c4=O)nc3)c2cc1OC` [Example 53, N-(5-((6,7-dimethoxy-2-methylquinolin-4-yl)oxy)pyridin-2-yl)-5-(4-fluorophenyl)-1-isopropyl-4-oxo-1,4-dihydropyridine-3-carboxamide], in assay [1], the 50% inhibitory concentration (IC50) is over 1000 nM.
On the same count and under the same terms, under `COc1cc2nccc(Oc3ccc(NC(=O)c4cn(C(C)C)c(C(C)C)c(-c5ccc(F)cc5)c4=O)nc3)c2cc1OC` [Example 38, N-(5-((6,7-dimethoxyquinolin-4yl)oxy)pyridin-2-yl)-5-(4-fluorophenyl)-1,6-diisopropyl-4-oxo-1,4-dihydropyridine-3-carboxamide] stands 18 nM.
